Earlier results, collected in patent US20250345336A1, “ALLOPURINOL ORAL SUSPENSION” (Extrovis AG, priority 2024, published 2025).

- aqueous solubility: poor aqueous solubility
Structure (SMILES): Oc1ncnc2[nH]ncc12 [Allopurinol, 1,5-dihydro-4H-pyrazolo [3,4-d] pyrimidin-4-one]
